These results are taken from patent US9868720B2 (Genentech, Inc., priority 2013, dated 2018).

DLK kinase (N-terminally GST-tagged DLK, catalytic domain amino acid 1-520), sequence (Q12852 1-520): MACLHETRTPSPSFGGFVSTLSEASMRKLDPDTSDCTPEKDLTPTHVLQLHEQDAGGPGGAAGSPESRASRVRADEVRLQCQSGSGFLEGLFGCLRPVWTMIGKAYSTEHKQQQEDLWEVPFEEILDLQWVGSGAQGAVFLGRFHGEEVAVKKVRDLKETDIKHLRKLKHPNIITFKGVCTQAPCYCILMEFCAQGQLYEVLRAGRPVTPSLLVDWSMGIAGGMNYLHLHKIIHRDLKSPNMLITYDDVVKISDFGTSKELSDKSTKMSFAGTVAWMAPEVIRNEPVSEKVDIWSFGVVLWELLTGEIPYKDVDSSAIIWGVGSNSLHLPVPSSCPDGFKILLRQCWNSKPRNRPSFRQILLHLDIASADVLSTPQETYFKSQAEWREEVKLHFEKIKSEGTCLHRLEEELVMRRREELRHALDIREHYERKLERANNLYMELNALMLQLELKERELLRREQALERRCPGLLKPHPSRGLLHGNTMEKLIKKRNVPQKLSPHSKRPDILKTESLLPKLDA

For this experiment, the target named is DLK kinase (N-terminally GST-tagged DLK, catalytic domain amino acid 1-520) (Homo sapiens (Human), UniProt Q12852). The experiment in a line: DLK TR-FRET assay. The format is biochemical. To be noted: 30 μM ATP, MKK4 K131M substrate, read-out: DLK HTRF (Ki). The procedure:
DLK TR-FRET assay: DLK kinase reactions (20 μL) containing 5 nM N-terminally GST-tagged DLK (catalytic domain amino acid 1-520) (Carna Bioscience), 40 nM N-terminally HIS-tagged MKK4 K131M substrate, and 30 μM ATP in kinase reaction buffer (50 mM HEPES, pH 7.5, 0.01% Triton X-100, 0.01% Bovine γ-Globulins, 2 mM DTT, 10 mM MgCl2 and 1 mM EGTA), and testing compound 1:3 serial diluted starting at 20 uM were incubated at ambient temperature for 60 minutes in 384 well OptiPlate (Perkin Elmer). To quench kinase reactions and detect phosphorylated MKK4, 15 μL of TR-FRET antibody mixture containing 2 nM anti-phosphorylated MKK4 labeled with Europium cryptate (Cisbio) and 23 nM anti-HIS labeled with D2 (Cisbio) in detection buffer (25 mM Tris pH 7.5, 100 mM NaCl, 100 mM EDTA, 0.01% Tween-20, and 200 mM KF) was added to the reaction mixture. The detection mixture was incubated for 3 hours at ambient temperature and the TR-FRET was detected with an EnVision multilabel plate reader (Perkin-Elmer) using the LANCE/DELFIA Dual Enh label from Perkin-Elmer (excitation filter: UV2 (TRF) 320 and emission filters: APC 665 and Europium 615).
Background: Time-resolved FRET reads energy transfer from a long-lived donor to a nearby acceptor.
What is called Ki is a measure of affinity in units of concentration, obtained from inhibition or displacement. For `C[C@@H]1CCCN1c1nc(Nc2cc(C(F)(F)F)ccn2)cc(-c2ccc(=O)n(C)c2)n1` [Example 331, 1-Methyl-5-[2-((R)-2-methyl-pyrrolidin-1-yl)-6-(4-trifluoromethyl-pyridin-2-ylamino)-pyrimidin-4-yl]-1H-pyridin-2-one], the inhibitory constant (Ki) was 18.4 nM.
Next, `CC1CCCN1c1nc(Nc2cc(C(F)(F)F)ccn2)cc(C2CCN(C)C(=O)C2)n1` (centres unmarked) [Example 332, 1-Methyl-4-[2-(2-methyl-pyrrolidin-1-yl)-6-(4-trifluoromethyl-pyridin-2-ylamino)-pyrimidin-4-yl]-piperidin-2-one]: 6.12 nM; `CCC1CN(c2nc(Nc3cc(C(F)(F)F)ccn3)cc(C3CCN(C)C3)n2)CCO1` (centres unmarked) [Example 348, [2-(2-Ethyl-morpholin-4-yl)-6-(1-methyl-pyrrolidin-3-yl)-pyrimidin-4-yl]-(4-trifluoromethyl-pyridin-2-yl)-amine]: 22.6 nM; `CC(C)Oc1nc(Nc2cc(C(F)(F)F)ccn2)cc(C2CCOCC2)n1` [Example 350, [2-Isopropoxy-6-(tetrahydro-pyran-4-yl)-pyrimidin-4-yl]-(4-trifluoromethyl-pyridin-2-yl)-amine]: 47.5 nM.
For `CC(=O)N1CC(c2cc(Nc3cc(C(F)(F)F)ccn3)nc(C3CC3)n2)C1` [Example 356, 1-{3-[2-Cyclopropyl-6-(4-trifluoromethyl-pyridin-2-ylamino)-pyrimidin-4-yl]-azetidin-1-yl}-ethanone], the Ki came to 101 nM.
In the case of `CN1CCCC(c2cc(Nc3cc(C(F)(F)F)ccn3)nc(N3CC(N4CCOCC4)C3)n2)C1` (centres unmarked) [Example 371, [6-(1-Methyl-piperidin-3-yl)-2-(3-morpholin-4-yl-azetidin-1-yl)-pyrimidin-4-yl]-(4-trifluoromethyl-pyridin-2-yl)-amine] it was 636 nM.
As to `O=C(C(F)F)N1CCC(c2cc(Nc3cc(C(F)(F)F)ccn3)nc(N3CC4CCC(C3)O4)n2)C1` (centres unmarked) [Example 373, 2,2-Difluoro-1-{3-[2-(8-oxa-3-aza-bicyclo[3.2. 1]oct-3-yl)-6-(4-trifluoro-methyl-pyridin-2-ylamino)-pyrimidin-4-yl]-pyrrolidin-1-yl}-ethanone], the inhibitory constant (Ki) came out at 173 nM.
Next, `C[C@@H]1CCCN1c1nc(Nc2cc(C(F)(F)F)ccn2)cc(C2CN(S(C)(=O)=O)C2)n1` [Example 374, [6-(1-Methanesulfonyl-azetidin-3-yl)-2-((R)-2-methyl-pyrrolidin-1-yl)-pyrimidin-4-yl]-(4-trifluoromethyl-pyridin-2-yl)-amine]: 30.6 nM.
As for `CC(=O)N1CC(c2cc(Nc3cc(C(F)(F)F)ccn3)nc(N3CCC[C@H]3C)n2)C1` [Example 375, 1-{3-[2-((R)-2-Methyl-pyrrolidin-1-yl)-6-(4-trifluoromethyl-pyridin-2-ylamino)-pyrimidin-4-yl]-azetidin-1-yl}-ethanone], the Ki came out at 11.1 nM.
In the case of `CC1CCCN1c1nc(Nc2cc(C(F)(F)F)ccn2)cc(C2CCN(C(=O)c3cn(C)cn3)C2)n1` (centres unmarked) [Example 376, (1-Methyl-1H-imidazol-4-yl)-{3-[2-(2-methyl-pyrrolidin-1-yl)-6-(4-trifluoromethyl-pyridin-2-ylamino)-pyrimidin-4-yl]-pyrrolidin-1-yl}-methanone] it was 1.72 nM; in that of `CS(=O)(=O)N1CCCC(c2cc(Nc3cc(C(F)(F)F)ccn3)nc(C3CCCC3)n2)C1` (centres unmarked) [Example 385, [2-Cyclopentyl-6-(1-methanesulfonyl-piperidin-3-yl)-pyrimidin-4-yl]-(4-trifluoromethyl-pyridin-2-yl)-amine], 36.8 nM.
Next, `Cn1nccc1-c1nc(Nc2cc(C(F)(F)F)ccn2)cc(C2CCN(CC3CCOCC3)C2)n1` (centres unmarked) [Example 388, {2-(2-Methyl-2H-pyrazol-3-yl)-6-[1-(tetrahydro-pyran-4-ylmethyl)-pyrrolidin-3-yl]-pyrimidin-4-yl]-(4-trifluoromethyl-pyridin-2-yl)-amine]: 8.75 nM; `FC(F)(F)c1ccnc(Nc2cc(C3CCCN(C4COC4)C3)nc(C3CCCC3)n2)c1` (centres unmarked) [Example 391, [2-Cyclopentyl-6-(1-oxetan-3-yl-piperidin-3-yl)-pyrimidin-4-yl]-(4-trifluoromethyl-pyridin-2-yl)-amine]: 9 nM; `O=C1CC(c2cc(Nc3cc(C(F)(F)F)ccn3)nc(C3CCOC3)n2)CCN1` (centres unmarked) [Example 392, 4-[2-(Tetrahydro-furan-3-yl)-6-(4-trifluoromethyl-pyridin-2-ylamino)-pyrimidin-4-yl]-piperidin-2-one]: 120 nM.
For the compound `CC(C)c1nc(Nc2cc(C(F)(F)F)ccn2)cc(C2CN(C3COC3)C2)n1` [Example 399, [2-Isopropyl-6-(1-oxetan 3-yl-azetidin-3-yl)-pyrimidin-4-yl]-(4-trifluoromethyl-pyridin-2-yl)-amine], the Ki was determined as 281 nM.
Next, `CS(=O)(=O)N1CCCC(c2cc(Nc3cc(C(F)(F)F)ccn3)nc(C3CCOC3)n2)C1` (centres unmarked) [Example 401, [6-(1-Methanesulfonyl-piperidin-3-yl)-2-(tetrahydro-furan-3-yl)-pyrimidin-4-yl]-(4-trifluoromethyl-pyridin-2-yl)-amine]: 122 nM; `CC1CCCN1c1nc(Nc2cc(C(F)(F)F)ccn2)cc(C2CCN(C(=O)Cn3ccnc3)C2)n1` (centres unmarked) [Example 402, 2-Imidazol-1-yl-1-{3-[2-(2-methyl-pyrrolidin-1-yl)-6-(4-trifluoromethyl-pyridin-2-ylamino)-pyrimidin-4-yl]-pyrrolidin-1-yl}-ethanone]: 1.59 nM; `FC1(F)CCN(c2nc(Nc3cc(C(F)(F)F)ccn3)cc(C3CCN(Cc4cn[nH]c4)C3)n2)C1` (centres unmarked) [Example 404, {2-(3,3-Difluoro-pyrrolidin-1-yl)-6-[1-(1H-pyrazol-4-ylmethyl)-pyrrolidin-3-yl]-pyrimidin-4-yl}-(4-trifluoromethyl-pyridin-2-yl)-amine]: 4.92 nM.
In the case of `FC(F)(F)c1ccnc(Nc2cc(C3CCCN(C4COC4)C3)nc(C3CCC3)n2)c1` (centres unmarked) [Example 407, [2-Cyclobutyl-6-(1-oxetan-3-yl-piperidin-3-yl)-pyrimidin-4-yl]-(4-trifluoro-methyl-pyridin-2-yl)-amine] it was 26 nM.
On to `CC(C)c1nc(Nc2cc(C(F)(F)F)ccn2)cc(C2CCNC(=O)C2)n1` (centres unmarked) [Example 408, 4-[2-Isopropyl-6-(4-trifluoro-methyl-pyridin-2-ylamino)-pyrimidin-4-yl]-piperidin-2-one], for which the Ki worked out at 97.8 nM.
In the case of `CC1CCCN1c1nc(Nc2cc(C(F)(F)F)ccn2)cc(C2CCNC(=O)C2)n1` (centres unmarked) [Example 412, 4-[2-(2-Methyl-pyrrolidin-1-yl)-6-(4-trifluoromethyl-pyridin-2-ylamino)-pyrimidin-4-yl]-piperidin-2-one] it was 47.5 nM; in that of `Cn1cc(-c2nc(Nc3cc(C(F)(F)F)ccn3)cc(C3CCN(CC4CCOCC4)C3)n2)cn1` (centres unmarked) [Example 423, {2-(1-Methyl-1H-pyrazol-4-yl)-6-[1-(tetrahydro-pyran-4-ylmethyl)-pyrrolidin-3-yl]-pyrimidin-4-yl}-(4-trifluoromethyl-pyridin-2-yl)-amine], 5.21 nM; in that of `CC(=O)N1CCC(c2cc(Nc3cc(C(F)(F)F)ccn3)nc(-c3cnn(C)c3)n2)CC1` [Example 424, 1-{4-[2-(1-Methyl-1H-pyrazol-4-yl)-6-(4-trifluoromethyl-pyridin-2-ylamino)-pyrimidin-4-yl]-piperidin-1-yl}-ethanone], 12.4 nM.
Next, `COc1cc(C)ccc1C(=O)N1CCCC(c2cc(Nc3cc(C)ccn3)nc(N3CCCC3C)n2)C1` (centres unmarked) [Example 425, (2-Methoxy-4-methyl-phenyl)-{3-[6-(4-methyl-pyridin-2-ylamino)-2-(2-methyl-pyrrolidin-1-yl)-pyrimidin-4-yl]-piperidin-1-yl}-methanone]: 0.17 nM.
On to `COc1cc(C)ccc1C(=O)N1CCCC(c2cc(Nc3cc(C)ccn3)nc(N3CCC(F)(F)C3)n2)C1` (centres unmarked) [Example 426, {3-[2-(3,3-Difluoro-pyrrolidin-1-yl)-6-(4-methyl-pyridin-2-ylamino)-pyrimidin-4-yl]-piperidin-1-yl}-(2-methoxy-4-methyl-phenyl)-methanone], for which the inhibition constant Ki came to 0.5 nM.
In the case of `FC1(F)CCN(c2nc(Nc3cc(Cl)ccn3)cc(C3CCN(C4COC4)CC3)n2)C1` [Example 427, N-(4-chloropyridin-2-yl)-2-(3,3-difluoropyrrolidin-1-yl)-6-(1-(oxetan-3-yl)piperidin-4-yl)pyrimidin-4-amine] it was 16 nM.
